Results from patent publication US9597407B2, “Targeted antimicrobial moieties” (C3 Jian, Inc., priority 2009, dated 2017).
“Also recorded” adds a separate entry of the source.

Test system: bacteria
Test: Binding of targeting peptides to microorganisms (Table 3)
Conditions: peptide binding in aqueous buffers varied by peptide solubility; preferably 1x PBS

| Substance | Target(s) (microorganism bound by the targeting peptide) |
| --- | --- |
| 1T-44 (DPALADFAAGMRAQVRT; Peptide with targeting and/or antimicrobial activity) [Peptide 1T-44] | S. mutans; also recorded: S. aureus; also recorded: S. epidermidis; also recorded: C. jeikeium; also recorded: C. striatum; also recorded: P. aeruginosa |
| 1T-45 (WTKPSFTDLRLGFEVTLYFANR; Peptide with targeting and/or antimicrobial activity) [Peptide 1T-45] | S. aureus; also recorded: S. epidermidis; also recorded: C. striatum; also recorded: P. aeruginosa |
| 1T-46 (FSFKQRVMFRKEVERLR; Peptide with targeting and/or antimicrobial activity) [Peptide 1T-46] | S. aureus; also recorded: S. epidermidis; also recorded: C. jeikeium; also recorded: C. xerosis; also recorded: C. striatum; also recorded: P. aeruginosa |
| 1T-47 (VIKISVPGQVQMLIP; Peptide with targeting and/or antimicrobial activity) [Peptide 1T-47] | S. mutans; also recorded: S. epidermidis; also recorded: P. aeruginosa |
| 1T-48 (KLQVHHGRATHTLLLQPPLCAPGTIR; Peptide with targeting and/or antimicrobial activity) [Peptide 1T-48] | S. aureus; also recorded: S. epidermidis; also recorded: C. jeikeium; also recorded: C. xerosis; also recorded: C. striatum; also recorded: P. aeruginosa |
| 1T-49 (SLVRIHDQQPWVTRGAFIDAARTCS; Peptide with targeting and/or antimicrobial activity) [Peptide 1T-49] | S. aureus; also recorded: S. epidermidis; also recorded: C. jeikeium; also recorded: P. aeruginosa |
| 1T-50 (HSDEPIPNILFKSDSVH; Peptide with targeting and/or antimicrobial activity) [Peptide 1T-50] | P. aeruginosa |
| 1T-51 (GKPKRMPAEFIDGYGQALLAGA; Peptide with targeting and/or antimicrobial activity) [Peptide 1T-51] | S. aureus; also recorded: P. aeruginosa |
| 1T-52 (DEYPAKLPLSDKGATEPRRH; Peptide with targeting and/or antimicrobial activity) [Peptide 1T-52] | S. aureus; also recorded: C. xerosis; also recorded: P. aeruginosa |
| 1T-53 (SDILAEMFEKGELQTLVKDAAAKANA; Peptide with targeting and/or antimicrobial activity) [Peptide 1T-53] | P. aeruginosa |
| 1T-54 (RWVSCNPSWRIQ; Peptide with targeting and/or antimicrobial activity) [Peptide 1T-54] | S. epidermidis; also recorded: C. xerosis; also recorded: C. striatum; also recorded: P. aeruginosa |
| 1T-55 (NHKTLKEWKAKWGPEAVESWATLLG; Peptide with targeting and/or antimicrobial activity) [Peptide 1T-55] | C. xerosis; also recorded: P. aeruginosa |
| 1T-56 (LALIGAGIWMIRKG; Peptide with targeting and/or antimicrobial activity) [Peptide 1T-56] | C. xerosis; also recorded: P. aeruginosa |
| 1T-57 (RLEYRRLETQVEENPESGRRPMRG; Peptide with targeting and/or antimicrobial activity) [Peptide 1T-57] | P. aeruginosa |
| 1T-58 (CDDLHALERAGKLDALLSA; Peptide with targeting and/or antimicrobial activity) [Peptide 1T-58] | P. aeruginosa |
| 1T-59 (AVGNNLGKDNDSGHRGKKHRKHKHR; Peptide with targeting and/or antimicrobial activity) [Peptide 1T-59] | S. aureus; also recorded: S. epidermidis; also recorded: P. aeruginosa |
| 1T-60 (YLTSLGLDAAEQAQGLLTILKG; Peptide with targeting and/or antimicrobial activity) [Peptide 1T-60] | S. aureus; also recorded: S. epidermidis; also recorded: C. jeikeium; also recorded: C. striatum; also recorded: P. aeruginosa |
| 1T-61 (HATLLPAVREAISRQLLPALVPRG; Peptide with targeting and/or antimicrobial activity) [Peptide 1T-61] | P. aeruginosa |
| 1T-62 (GCKGCAQRDPCAEPEPYFRLR; Peptide with targeting and/or antimicrobial activity) [Peptide 1T-62] | S. epidermidis; also recorded: P. aeruginosa |
| 1T-63 (EPLILKELVRNLFLFCYARALR; Peptide with targeting and/or antimicrobial activity) [Peptide 1T-63] | S. aureus; also recorded: S. epidermidis; also recorded: C. jeikeium; also recorded: C. xerosis; also recorded: C. striatum; also recorded: P. aeruginosa |
| 1T-64 (QTVHHIHMHVLGQRQMHWPPG; Peptide with targeting and/or antimicrobial activity) [Peptide 1T-64] | S. aureus; also recorded: S. epidermidis; also recorded: C. jeikeium; also recorded: C. xerosis; also recorded: C. striatum; also recorded: P. aeruginosa |
| 1T-65 (HARAAVGVAELPRGAAVEVELIAAVRP; Peptide with targeting and/or antimicrobial activity) [Peptide 1T-65] | S. mutans; also recorded: S. aureus; also recorded: S. epidermidis; also recorded: C. jeikeium; also recorded: C. xerosis; also recorded: C. striatum; also recorded: P. aeruginosa |
| 1T-66 (DTDCLSRAYAQRIDELDKQYAGIDKPL; Peptide with targeting and/or antimicrobial activity) [Peptide 1T-66] | S. mutans; also recorded: S. aureus; also recorded: S. epidermidis; also recorded: C. jeikeium; also recorded: C. xerosis; also recorded: C. striatum; also recorded: P. aeruginosa |
| 1T-67 (GQRQRLTCGRVSGCSEGPSREAAR; Peptide with targeting and/or antimicrobial activity) [Peptide 1T-67] | S. aureus; also recorded: S. epidermidis; also recorded: C. jeikeium; also recorded: C. xerosis; also recorded: C. striatum; also recorded: P. aeruginosa |
| 1T-68 (GGTKEIVYQRG; Peptide with targeting and/or antimicrobial activity) [Peptide 1T-68] | S. mutans; also recorded: S. aureus; also recorded: C. jeikeium; also recorded: C. xerosis; also recorded: C. striatum; also recorded: P. aeruginosa |
| 1T-69 (ILSQEADRKKLF; Peptide with targeting and/or antimicrobial activity) [Peptide 1T-69] | S. mutans; also recorded: P. aeruginosa |
